This is an account of results in patent US20030232986A1, “Inhibitors of caspases” (Vertex Pharmaceuticals Incorporated, priority 1998, published 2003).

One assay addresses T1, Caspase-1 (Homo sapiens, UniProt P29466).
T1 sequence (P29466 120-297 limits assumed): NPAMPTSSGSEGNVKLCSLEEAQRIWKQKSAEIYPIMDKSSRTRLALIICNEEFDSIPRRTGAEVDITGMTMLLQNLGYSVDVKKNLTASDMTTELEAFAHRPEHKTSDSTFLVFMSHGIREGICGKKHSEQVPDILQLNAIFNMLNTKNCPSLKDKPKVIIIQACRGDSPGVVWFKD
T1 sequence (P29466 317-404 limits assumed): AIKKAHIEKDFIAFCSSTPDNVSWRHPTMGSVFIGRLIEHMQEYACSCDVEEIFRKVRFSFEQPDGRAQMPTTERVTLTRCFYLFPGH
Briefly: Caspase-1 enzyme inhibition (Ki). Format: biochemical. The note with it: substrate Suc-YVAD-pNA 80 μM, 37° C., pH 7.5. As for the experimental part:
Ki values for test compounds with the various caspases were obtained by the method of Margolin et al. (J. Biol. Chem., 272 pp. 7223-7228 (1997)). Assays were performed in 10 mM Tris (Sigma Corp, St Louis Mo.) pH 7.5, 1 mM Dithiothreitol (DTT, Research Organic INC, Cleveland, Ohio) and 0.1% CHAPS (Pierce, Rockford Ill.) at 37° C. For caspase-3, a solution of 8% glycerol was added to the assay buffer to improve enzyme stability. A 65 μL aliquot of the assay buffer and 5 μL aliquot of the appropriate dilutions of inhibitor in DMSO where pipetted into a 96 well plate, treated with 10 μL of caspase, then diluted in assay buffer (0.5-40 nM active protein by active site titration). A control containing DMSO but no compound was included for each determination. The plates were then incubated for 15 minutes at 37° C., before addition of the appropriate substrate (20 μL, final concentration 1-4×KM, final assay volume 100 μL) to initiate the reaction. Reaction rates were measured at 37° C. either by following the time dependant increase in absorbance at 405 nm (for the pNA substrates) or in fluorescence (Ex 390, Em 460) (for the AMC substrates). The rates obtained were plotted against inhibitor concentration and the data fit to the Morrison tight-binding equation for competitive inhibitors (Morrison, J. F., Biochem. Biophys. Acta, 185 pp. 269-286 (1969)). The substrates used for the individual assays were as follows:
Caspase-1 Suc-YVAD-pNA (Bachem, King of Prussia, Pa.) (final concentration in the assay 80 μM),

Assay [1] concerns Human whole blood, IL-1β production. Nature of the assay: Whole blood assay for IL-1β production. It counts as cell-based. The note with it: LPS-stimulated whole blood, IL-1β by ELISA. The protocol:
The whole blood assay is a simple method for measuring the production of IL-1β (or other cytokines) and the activity of potential inhibitors. The complexity of this assay system, with its full complement of lymphoid and inflammatory cell types, spectrum of plasma proteins and red blood cells is an ideal in vitro representation of human in vivo physiologic conditions.
Set incubator or water bath at 30° C. Aliquot 0.25 ml of blood into 1.5 ml eppendorf tubes. Note: be sure to invert the whole blood sample tubes after every two aliquots. Differences in replicates may result if the cells sediment and are not uniformly suspended. Use of a positive displacement pipette will also minimize differences between replicate aliquots.
Prepare drug dilutions in sterile pyrogen-free saline by serial dilution. A dilution series which brackets the apparent Ki for a test compound determined in an ICE inhibition assay is generally used for the primary compound screen. For extremely hydrophobic compounds, prepare compound dilutions in fresh plasma obtained from the same blood donor or in PBS-containing 5% DMSO to enhance solubility.
Add 25 μl test compound dilution or vehicle control and gently mix the sample. Then add 5.0 μl LPS solution (250 ng/ml stocked prepared fresh: 5.0 ng/ml final concentration LPS), and mix again. Incubate the tubes at […] in a water bath for 16-18 hr with occasional mixing. Alternatively, the tubes can be placed in a rotator set at 4 rpm for the same incubation period. This assay should be set up in duplicate or triplicate with the following controls: negative control—no LPS; positive control—no test inhibitor; vehicle control—the highest concentration of DMSO or compound solvent used in the experiment. Additional saline is added to all control tubes to normalize volumes for both control and experimental whole blood test samples.
After the incubation period, whole blood samples are centrifuged for 10 minutes at ^˜2000 rpm in the microfuge, plasma is transferred to a fresh microfuge tube and centrifuged at 1000×g to pellet residual platelets if necessary. Plasma samples may be stored frozen at −70° C. prior to assay for cytokine levels by ELISA.
R & D Systems (614 McKinley Place N.E. Minneapolis, Minn. 55413) Quantikine kits may be used for measurement of IL-1β and TNF-α. The assays are performed according to the manufacture's directions. IL-1β levels of ^˜1-5 ng/ml in positive controls among a range of individuals may be observed. A 1:200 dilution of plasma for all samples is usually sufficient for experiments for ELISA results to fall on the linear range of the ELISA standard curves. It may be necessary to optimize standard dilutions if you observe differences in the whole blood assay. Nerad, J. L. et al., J. Leukocyte Biol., 52, pp. 687-692 (1992).

On to `CNc1ccc(C(=O)N[C@@H](C)C(=O)N2CCC[C@H]2C(=O)N[C@H](C=O)CC(=O)O)cc1Cl` [Example 7aa], for which the Ki at Caspase-1 was less than 0.01 µM. Also, the half-maximal inhibitory concentration (IC50) in assay [1] fell in the range of 2.5 to 7.5 µM.
Taken in the same sequence, the figures for `C[C@H](NC(=O)c1cccc(C#N)c1)C(=O)N1CCC[C@H]1C(=O)N[C@H](C=O)CC(=O)O` [Example 7ad] were 0.01 to 1 µM and 2.5 to 7.5 µM.
Taken in the same sequence, the figures for `C[C@H](NC(=O)c1cccc(Cl)c1)C(=O)N1CCC[C@H]1C(=O)N[C@H](C=O)CC(=O)O` [Example 7ah] were less than 0.01 µM and 2.5 to 7.5 µM.
`C[C@H](NC(=O)c1cc(Cl)cc(Cl)c1)C(=O)N1CCC[C@H]1C(=O)N[C@H](C=O)CC(=O)O` [Example 7ai] gave a Ki on Caspase-1 of less than 0.01 µM. In addition, the IC50 in assay [1] lay in the range of 2.5 to 7.5 µM.
As to `C[C@H](NC(=O)c1ccc(Cl)c(Cl)c1)C(=O)N1CCC[C@H]1C(=O)N[C@H](C=O)CC(=O)O` [Example 7aj], the Ki at Caspase-1 was less than 0.01 µM. Further, the half-inhibitory concentration (IC50) in assay [1] is more than 7.5 µM.
For the compound `C[C@H](NC(=O)c1ccc(F)c(Cl)c1)C(=O)N1CCC[C@H]1C(=O)N[C@H](C=O)CC(=O)O` [Example 7ak], the Ki on Caspase-1 is less than 0.01 µM. Also, the concentration for half-maximal inhibition (IC50) in assay [1] lay in the range of 2.5 to 7.5 µM.
In the same order, the values of `C[C@H](NC(=O)c1cccc(C(F)(F)F)c1)C(=O)N1CCC[C@H]1C(=O)N[C@H](C=O)CC(=O)O` [Example 7am] are less than 0.01 µM and 2.5 to 7.5 µM.
In the same order, the values of `Cc1ccc(Cl)cc1C(=O)N[C@@H](C)C(=O)N1CCC[C@H]1C(=O)N[C@H](C=O)CC(=O)O` [Example 7an] are less than 0.01 µM and 2.5 to 7.5 µM.
On Caspase-1, `Cc1c(Cl)cccc1C(=O)N[C@@H](C)C(=O)N1CCC[C@H]1C(=O)N[C@H](C=O)CC(=O)O` [Example 7ao] yielded an inhibitory constant (Ki) of 0.01 to 1 µM. In assay [1], the IC50 lay in the range of 2.5 to 7.5 µM.
In the same order, the values of `C[C@H](NC(=O)C(=O)c1ccccc1)C(=O)N1CCC[C@H]1C(=O)N[C@H](C=O)CC(=O)O` [Example 7ap] are 0.01 to 1 µM and more than 7.5 µM.
Turning to `CC(C)[C@H](NC(=O)c1ccc(N)c(Cl)c1)C(=O)N1CC(F)(F)C[C@H]1C(=O)N[C@H](C=O)CC(=O)O` [Example 27d], at Caspase-1, the inhibitory constant (Ki) is less than 0.01 µM. In addition, the IC50 in assay [1] is less than 2.5 µM.
`CC[C@H](NC(=O)c1ccc(N)c(Cl)c1)C(=O)N1CC(F)(F)C[C@H]1C(=O)N[C@H](C=O)CC(=O)O` [Example 27e] showed a Ki on Caspase-1 of 0.01 to 1 µM. Besides, the IC50 in assay [1] was less than 2.5 µM.
In the same order, the values of `C[C@H](NC(=O)c1cccc2ccccc12)C(=O)N1CC(F)(F)C[C@H]1C(=O)N[C@H](C=O)CC(=O)O` [Example 27f] are 0.01 to 1 µM and 2.5 to 7.5 µM.
With `C[C@H](NC(=O)c1cc(Cl)c(O)c(Cl)c1)C(=O)N1CC(F)(F)C[C@H]1C(=O)N[C@H](C=O)CC(=O)O` [Example 27g], at Caspase-1, the inhibition constant (Ki) was less than 0.01 µM. The IC50 in assay [1] was in the range of 2.5 to 7.5 µM.
In the same order, the values of `COc1c(Cl)cc(C(=O)N[C@@H](C)C(=O)N2CC(F)(F)C[C@H]2C(=O)N[C@H](C=O)CC(=O)O)cc1Cl` [Example 27h] are 0.01 to 1 µM and 2.5 to 7.5 µM.
In the same order, the values of `COc1c(C)cc(C(=O)N[C@@H](C)C(=O)N2CC(F)(F)C[C@H]2C(=O)N[C@H](C=O)CC(=O)O)cc1C` [Example 27i] are 0.01 to 1 µM and 2.5 to 7.5 µM.
With `C[C@H](NC(=O)c1nccc2ccccc12)C(=O)N1CC(F)(F)C[C@H]1C(=O)N[C@H](C=O)CC(=O)O` [Example 27l], at Caspase-1, the Ki is 0.01 to 1 µM. Also, the 50% inhibitory concentration (IC50) in assay [1] was 2.5 to 7.5 µM.
In the same order, the values of `C[C@H](NC(=O)c1cccc(C(F)(F)F)c1)C(=O)N1CC(F)(F)C[C@H]1C(=O)N[C@H](C=O)CC(=O)O` [Example 27m] are 0.01 to 1 µM and 2.5 to 7.5 µM.
In the same order, the values of `C[C@H](NC(=O)c1ccc2[nH]cnc2c1)C(=O)N1CC(F)(F)C[C@H]1C(=O)N[C@H](C=O)CC(=O)O` [Example 27n] are 0.01 to 1 µM and less than 2.5 µM.
`COc1ccc(C(=O)N[C@@H](C)C(=O)N[C@@H](C)C(=O)N[C@H](C=O)CC(=O)O)cc1` [Example 29s]: the Ki on Caspase-1 was 0.01 to 1 µM. In assay [1], this compound displayed a half-inhibitory concentration (IC50) of less than 2.5 µM.
Consider `C[C@H](NC(=O)c1ccc(N(C)C)c(Cl)c1)C(=O)N1CCC[C@H]1C(=O)N[C@H](C=O)CC(=O)O` [Example 122m, 3-({1-[2-(3-Chloro-4-dimethylamino-benzoylamino)-propionyl]-pyrrolidine-2-carbonyl}-amino)-4-oxo-butyric acid], for which the Ki on Caspase-1 fell in the range of 0.01 to 1 µM. The half-inhibitory concentration (IC50) in assay [1] was in the range of 2.5 to 7.5 µM.
Taken in the same sequence, the figures for `C[C@H](NC(=O)c1c(F)c(F)c(N)c(F)c1F)C(=O)N1CCC[C@H]1C(=O)N[C@H](C=O)CC(=O)O` [Example 122p, 3-({1-[2-(4-Amino-2,3,5,6-tetrafluoro-benzoylamino)-propionyl]-pyrrolidine-2-carbonyl}-amino)-4-oxo-butyric acid] were less than 0.01 µM and 2.5 to 7.5 µM.
Taken in the same sequence, the figures for `C[C@H](NC(=O)c1ccc2ncccc2c1)C(=O)N1CCC[C@H]1C(=O)N[C@H](C=O)CC(=O)O` [Example 122q, 4-Oxo-3-[(1-{2-[(quinoline-6-carbonyl)-amino]-propionyl}-pyrrolidine-2-carbonyl)-amino]-butyric acid] were 0.01 to 1 µM and 2.5 to 7.5 µM.
On Caspase-1, `C[C@H](NC(=O)c1ccc(NC(=O)C(C)(C)C)c(Cl)c1)C(=O)N1CCC[C@H]1C(=O)N[C@H](C=O)CC(=O)O` [Example 122s, 3-[(1-{2-[3-Chloro-4-(2,2-dimethyl-propionylamino)-benzoylamino]-propionyl}-pyrrolidine-2-carbonyl)-amino]-4-oxo-butyric acid] had a Ki of 0.01 to 1 µM. For the same compound, the IC50 in assay [1] was in the range of 2.5 to 7.5 µM.
For the compound `CC(NC(=O)c1ccc(N)c(Cl)c1)C(=O)N1CC(F)CC1C(=O)NC(C=O)CC(=O)O` (stereo not drawn) [Example 123a, 3-({1-[2-(4-Amino-3-chloro-benzoylamino)-propionyl]-4-fluoro-pyrrolidine-2-carbonyl}-amino)-4-oxo-butyric acid], on Caspase-1, the Ki lay in the range of 0.01 to 1 µM. The compound further returned a half-inhibitory concentration (IC50) in assay [1] of less than 2.5 µM.
Taken in the same sequence, the figures for `CC(=O)Nc1ccc(C(=O)NC(C)C(=O)N2CC(F)(F)CC2C(=O)NC(C=O)CC(=O)O)cc1Cl` (stereo not drawn) [Example 123b, 3-({1-[2-(4-Acetylamino-3-chloro-benzoylamino)-propionyl]-4,4-difluoro-pyrrolidine-2-carbonyl}-amino)-4-oxo-butyric acid] were 0.01 to 1 µM and 2.5 to 7.5 µM.
On Caspase-1, `Nc1ccc(C(=O)NCC(=O)N2CC(F)(F)C[C@H]2C(=O)N[C@H](C=O)CC(=O)O)cc1Cl` [Example G2, 3-({1-[(4-Amino-3-chloro-benzoylamino)-acetyl]-4,4-difluoro-pyrrolidine-2-carbonyl}-amino)-4-oxo-butyric acid] displayed an inhibition constant (Ki) of 0.01 to 1 µM. Further, the half-maximal inhibitory concentration (IC50) in assay [1] was 2.5 to 7.5 µM.

In general, Ki refers to the dissociation constant of the complex between target and ligand, obtained from inhibition or displacement. A lower Ki goes with tighter binding. In general, IC50 refers to the concentration at which inhibition is half-maximal.
